Data taken from patent US20140135310A1, “SULPHONAMIDE DERIVATIVES OF ALICYCLIC AMINES FOR THE TREATMENT OF CENTRAL NERVOUS SYSTEM DISEASES” (Adamed Sp. z o.o., priority 2011, published 2014).
Read-outs that look alike come from different tables or passages of the source.

Tests used:
Assay type in all cases: cell-based
[1] = molecular target: 5-HT6 serotoninergic receptors (Homo sapiens, UniProt P50406); assay: Cellular functional assay, 5-HT6 serotoninergic receptors; settings: for 5-HT6 ag [%]: agonist mode, percent of control specific agonist response
Sequence of 5-HT6 serotoninergic receptors (P50406 whole entry): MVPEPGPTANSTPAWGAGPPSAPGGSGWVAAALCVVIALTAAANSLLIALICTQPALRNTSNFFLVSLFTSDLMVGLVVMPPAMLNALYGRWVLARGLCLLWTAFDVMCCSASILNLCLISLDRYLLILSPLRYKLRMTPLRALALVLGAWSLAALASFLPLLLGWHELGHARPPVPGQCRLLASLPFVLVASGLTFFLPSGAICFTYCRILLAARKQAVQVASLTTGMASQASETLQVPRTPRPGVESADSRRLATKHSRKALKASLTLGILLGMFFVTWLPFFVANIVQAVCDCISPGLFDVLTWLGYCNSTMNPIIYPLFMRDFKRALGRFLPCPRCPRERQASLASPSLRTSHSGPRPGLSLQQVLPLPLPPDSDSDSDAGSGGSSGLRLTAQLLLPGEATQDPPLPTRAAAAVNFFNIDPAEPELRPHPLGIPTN
Protocol: (§1) The results are expressed as a percent of control specific agonist response ((measured specific response/control specific agonist response)×100) obtained in the presence of the test compounds.
(§2) The EC50 values (concentration producing a half-maximal specific response) and IC50 values (concentration causing a half-maximal inhibition of the control specific agonist response) were determined by non-linear regression analysis of the concentration-response curves generated with mean replicate values using Hill equation curve fitting (Y=D+[(A−D)/(1+(C/C50)nH)], where Y=specific response, D=minimum specific response, A=maximum specific response, C=compound concentration, and C50=EC50 or IC50, and nH=slope factor). This analysis was performed using a software developed at Cerep (Hill software) and validated by comparison with data generated by the commercial software SigmaPlot® 4.0 for Windows® (© 1997 by SPSS Inc.).
(§3) For the antagonists, the apparent dissociation constants (Kb) were calculated using the modified Cheng Prusoff equation (Kb=IC50/(1+(A/EC50A)), where A=concentration of reference agonist in the assay, and EC50A=EC50 value of the reference agonist).

[2] = molecular target: D2 dopaminergic receptors (Homo sapiens, UniProt P14416); assay: Cellular functional assay, D2 dopaminergic receptors; settings: for D2 ag [%]: agonism, percent of control specific agonist response (3 μM dopamine for control); for D2 ag [%] / D2 antag [%]: D2S (h), HEK-293 cells; for D2 antag [%]: antagonism, stimulus dopamine (30 nM)
Sequence of D2 dopaminergic receptors (P14416 whole entry): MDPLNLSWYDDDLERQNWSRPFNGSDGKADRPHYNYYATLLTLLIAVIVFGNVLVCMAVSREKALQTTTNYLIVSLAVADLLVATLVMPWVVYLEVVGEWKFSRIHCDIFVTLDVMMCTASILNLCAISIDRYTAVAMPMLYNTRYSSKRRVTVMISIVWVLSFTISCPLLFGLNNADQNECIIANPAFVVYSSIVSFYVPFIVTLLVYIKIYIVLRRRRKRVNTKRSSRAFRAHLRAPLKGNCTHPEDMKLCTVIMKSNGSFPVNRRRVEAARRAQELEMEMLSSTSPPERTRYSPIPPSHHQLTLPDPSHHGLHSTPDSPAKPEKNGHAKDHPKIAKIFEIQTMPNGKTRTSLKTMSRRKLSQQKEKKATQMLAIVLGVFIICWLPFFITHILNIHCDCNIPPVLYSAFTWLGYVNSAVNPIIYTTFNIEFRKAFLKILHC
Protocol: as §1, §2, §3

[3] = molecular target: 5-HT7 serotoninergic receptors (Homo sapiens, UniProt P34969); assay: Cellular functional assay, 5-HT7 serotoninergic receptors; settings: for 5-HT7 ag [%]: agonist mode, percent of control specific agonist response; for Kb: apparent dissociation constant, modified Cheng Prusoff equation, read-out: 5-HT7 antag Kb
Sequence of 5-HT7 serotoninergic receptors (P34969 whole entry): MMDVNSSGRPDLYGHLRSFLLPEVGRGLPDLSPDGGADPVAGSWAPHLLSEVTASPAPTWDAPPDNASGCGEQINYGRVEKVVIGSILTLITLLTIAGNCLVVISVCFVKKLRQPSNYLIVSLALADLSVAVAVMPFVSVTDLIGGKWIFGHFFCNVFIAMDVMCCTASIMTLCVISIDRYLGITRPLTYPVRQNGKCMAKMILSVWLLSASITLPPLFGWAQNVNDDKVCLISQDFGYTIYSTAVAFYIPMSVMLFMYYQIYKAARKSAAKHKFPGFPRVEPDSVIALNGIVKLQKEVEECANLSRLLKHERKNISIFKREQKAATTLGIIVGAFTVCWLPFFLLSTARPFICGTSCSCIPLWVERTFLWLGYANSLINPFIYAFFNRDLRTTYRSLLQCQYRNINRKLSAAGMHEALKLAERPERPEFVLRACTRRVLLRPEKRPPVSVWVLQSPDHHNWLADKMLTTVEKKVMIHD
Protocol: as §1, §2, §3

[4] = molecular target: 5-HT2A serotoninergic receptors (Homo sapiens, UniProt P28223); assay: Cellular functional assay, 5-HT2A serotoninergic receptors
Sequence of 5-HT2A serotoninergic receptors (P28223 whole entry): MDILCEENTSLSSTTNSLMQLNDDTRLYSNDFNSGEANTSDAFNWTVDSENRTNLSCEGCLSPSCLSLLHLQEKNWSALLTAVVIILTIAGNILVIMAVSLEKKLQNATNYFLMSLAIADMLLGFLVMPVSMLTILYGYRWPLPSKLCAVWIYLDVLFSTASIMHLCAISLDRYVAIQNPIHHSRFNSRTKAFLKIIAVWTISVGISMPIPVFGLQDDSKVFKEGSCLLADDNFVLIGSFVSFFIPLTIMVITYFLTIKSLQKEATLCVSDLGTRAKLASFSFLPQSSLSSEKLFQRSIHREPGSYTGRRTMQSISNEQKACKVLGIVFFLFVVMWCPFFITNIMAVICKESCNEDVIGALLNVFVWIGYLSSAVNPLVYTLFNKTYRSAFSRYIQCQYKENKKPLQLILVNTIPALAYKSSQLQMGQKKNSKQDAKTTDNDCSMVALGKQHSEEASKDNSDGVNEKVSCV
Protocol: as §1
as §2, with “factor).” for “factor). This analysis was performed using a software developed at Cerep (Hill software) and validated by comparison with data generated by the commercial software SigmaPlot® 4.0 for Windows® (© 1997 by SPSS Inc.).”
as §3

[5] = molecular target: D3 dopaminergic receptors (Homo sapiens, UniProt P35462); assay: Cellular functional assay, D3 dopaminergic receptors; settings: for D3 ag [%]: agonism, percent of control specific agonist response (0.3 μM dopamine for control); for D3 ag [%] / D3 antag [%]: D3 (h), CHO cells; for D3 antag [%]: antagonism, stimulus dopamine (10 nM)
Sequence of D3 dopaminergic receptors (P35462 whole entry): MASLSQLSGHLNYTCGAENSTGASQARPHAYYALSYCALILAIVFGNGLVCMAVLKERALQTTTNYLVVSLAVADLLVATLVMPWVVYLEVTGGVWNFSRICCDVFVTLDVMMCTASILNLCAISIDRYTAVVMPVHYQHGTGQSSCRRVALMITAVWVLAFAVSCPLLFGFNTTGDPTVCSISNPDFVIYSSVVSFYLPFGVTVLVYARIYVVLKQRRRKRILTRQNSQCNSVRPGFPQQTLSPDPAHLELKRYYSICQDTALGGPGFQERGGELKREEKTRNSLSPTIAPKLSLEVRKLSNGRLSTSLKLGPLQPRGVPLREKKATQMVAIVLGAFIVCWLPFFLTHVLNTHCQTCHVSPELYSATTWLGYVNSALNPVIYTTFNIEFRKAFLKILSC
Protocol: as §1, §2, §3

[6] = agonist mode, percent of control specific agonist response

| Compound | 5-HT6 ag [%] [1] [%] | D2 ag [%] [2] [%] | D2 antag [%] [2] [%] | 5-HT7 ag [%] [3] [%] | 5-HT2A ag [%] [4] [%] | 5-HT2A ag [%] [4, 6] [%] | D3 ag [%] [5] [%] | D3 antag [%] [5] [%] | Kb ([1]; apparent dissociation constant, modified Cheng Prusoff equation, read-out: 5-HT6 antag Kb) [nM] | Kb ([2]; apparent dissociation constant, modified Cheng Prusoff equation, read-out: D2 antag Kb) [nM] | Kb [3] [nM] | Kb ([5]; apparent dissociation constant, modified Cheng Prusoff equation, read-out: D3 antag Kb) [nM] | Kb ([4]; apparent dissociation constant, modified Cheng Prusoff equation, read-out: 5-HT2A antag Kb) [nM] | 5-HT6 antag [%] ([1]; antagonist mode) | 5-HT7 antag [%] ([3]; antagonist mode) |
| --- | --- | --- | --- | --- | --- | --- | --- | --- | --- | --- | --- | --- | --- | --- | --- |
| O=S(=O)(NCC1CCN(CCCc2noc3cc(F)ccc23)C1)c1ccc2ccccc2c1 (stereo not shown) [Compound 240, N-[[1-[3-(6-Fluoro-1,2-benzoxazol-3-yl)propyl]pyrrolidin-3-yl]methyl]-naphthalene-2-sulphonamide] | 4 | 3 | 64 | 0 | −1 |  |  |  |  |  |  |  |  |  |  |
| O=S(=O)(N[C@H]1CCN(CCCc2noc3cc(F)ccc23)C1)c1cc2ccc(Cl)cc2s1 [Compound 199, 6-Chloro-N-[(3S)-1-[3-(6-fluoro-1,2-benzoxazol-3-yl)propyl]pyrrolidin-3-yl]benzothiophene-2-sulphonamide] | −3 | 4 | 46 | 1 |  | −2 |  |  |  |  |  |  |  |  |  |
| Cc1c(S(=O)(=O)NC2CCN(CCCc3noc4cc(F)ccc34)C2)sc2ccc(F)cc12 (stereo not shown) [Compound 28, 5-Fluoro-N-[1-[3-(6-fluoro-1,2-benzoxazol-3-yl)propyl]pyrrolidin-3-yl]-3-methyl-benzothiophene-2-sulphonamide] | −1 | 1 | 87 | −3 |  | −2 | −8 | 74 |  |  |  |  |  |  |  |
| O=S(=O)(N[C@@H]1CCN(CCCc2noc3cc(F)ccc23)C1)c1cc2ccccc2s1 [Compound 196, N-[(3R)-1-[3-(6-Fluoro-1,2-benzoxazol-3-yl)propyl]pyrrolidin-3-yl]benzo-thiophene-2-sulphonamide] | −2 | 0 | 95 | 0 | 0 |  | −16 | 77 | 38 | 10 | 0.57 | 71 | 8.3 |  |  |
| O=S(=O)(N[C@H]1CCN(CCCc2noc3cc(F)ccc23)C1)c1cc2ccccc2s1 [Compound 197, N-[(3S)-1-[3-(6-Fluoro-1,2-benzoxazol-3-yl)propyl]pyrrolidin-3-yl]benzo-thiophene-2-sulphonamide] | −1 | 1 | 82 | 0 | 1 |  |  |  |  |  |  |  |  |  |  |
| O=S(=O)(N[C@@H]1CCN(CCCc2noc3cc(F)ccc23)C1)c1cc2ccc(Cl)cc2s1 [Compound 198, 6-Chloro-N-[(3R)-1-[3-(6-fluoro-1,2-benzoxazol-3-yl)propyl]pyrrolidin-3-yl]benzothiophene-2-sulphonamide] | −1 | 4 | 83 | 1 |  | −3 | −17 | 97 |  |  |  |  |  |  |  |
| COc1ccc2cc(S(=O)(=O)NC3CCN(CCCc4noc5cc(F)ccc45)C3)ccc2c1 (stereo not shown) [Compound 227, N-[1-[3-(6-Fluoro-1,2-benzoxazol-3-yl)propyl]pyrrolidin-3-yl]-6-methoxy-naphthalene-2-sulphonamide] | −4 | 11 | 99 | −2 |  | −2 | −6 | 105 |  |  |  |  |  |  |  |
| COc1ccc2cc(S(=O)(=O)N[C@H]3CCN(CCCc4noc5cc(F)ccc45)C3)ccc2c1 [Compound 231, N-[(3S)-1-[3-(6-Fluoro-1,2-benzoxazol-3-yl)propyl]pyrrolidin-3-yl]-6-methoxy-naphthalene-2-sulphonamide] |  | 13 | 49 |  |  | 0 | −6 | 54 |  |  |  |  |  |  |  |
| O=S(=O)(N[C@@H]1CCN(CCCc2noc3cc(F)ccc23)C1)c1ccc2ccccc2c1 [Compound 206, N-[(3R)-1-[3-(6-Fluoro-1,2-benzoxazol-3-yl)propyl]pyrrolidin-3-yl]naphthalene-2-sulphonamide] | −2 | 1 | 96 | −1 | −1 |  | 3 | 77 |  |  |  |  |  |  |  |
| O=S(=O)(NC1CCN(CCCc2noc3cc(F)ccc23)C1)c1cc2ccc(F)cc2s1 (stereo not shown) [Compound 234, 6-Fluoro-N-[1-[3-(6-fluoro-1,2-benzoxazol-3-yl)propyl]pyrrolidin-3-yl]benzothiophene-2-sulphonamide] | −1 | 2 | 91 | 0 | 1 |  | −14 | 89 |  |  |  |  |  |  |  |
| O=S(=O)(N[C@H]1CCN(CCCc2noc3cc(F)ccc23)C1)c1cc2ccccc2o1 [Compound 215, N-[(3S)-1-[3-(6-Fluoro-1,2-benzoxazol-3-yl)propyl]pyrrolidin-3-yl]benzo-furan-2-sulphonamide] | −2 | 6 | 91 | 0 |  | −2 |  |  |  |  |  |  |  |  |  |
| O=S(=O)(N[C@@H]1CCN(CCCc2noc3cc(F)ccc23)C1)c1cc2ccccc2o1 [Compound 214, N-[(3R)-1-[3-(6-Fluoro-1,2-benzoxazol-3-yl)propyl]pyrrolidin-3-yl]benzo-furan-2-sulphonamide] | −4 | 3 | 89 | −1 |  | −2 |  | 117 |  |  |  |  |  |  |  |
| O=S(=O)(NC1CCN(CCCc2noc3cc(F)ccc23)CC1)c1cccc2ccccc12 [Compound 34, N-[1-[3-(6-Fluoro-1,2-benzoxazol-3-yl)propyl]-4-piperidine]-naphthalene-1-sulphonamide] |  |  |  | −1 | −1 |  |  |  |  |  | 0.077 |  |  |  |  |
| Cc1ccc2sc(S(=O)(=O)NC3CCN(CCCc4noc5cc(F)ccc45)C3)cc2c1 (stereo not shown) [Compound 226, N-[1-[3-(6-Fluoro-1,2-benzoxazol-3-yl)propyl]pyrrolidin-3-yl]-5-methylbenzothiophene-2-sulphonamide] | −5 | 0 | 87 | −2 |  | −1 | −26 | 107 |  |  |  |  |  |  |  |
| O=S(=O)(NC1CCN(CCCc2noc3cc(F)ccc23)C1)c1cc2ccccc2o1 (stereo not shown) [Compound 216, N-[1-[3-(6-Fluoro-1,2-benzoxazol-3-yl)propyl]pyrrolidin-3-yl]benzofuran-2-sulphonamide] | −5 | 0 | 86 | −5 |  | −2 |  |  |  |  |  |  |  |  |  |
| Cc1c(S(=O)(=O)N[C@@H]2CCN(CCCc3noc4cc(F)ccc34)C2)sc2ccc(Cl)cc12 [Compound 204, 5-Chloro-N-[(3R)-1-[3-(6-fluoro-1,2-benzoxazol-3-yl)propyl]pyrrolidin-3-yl]-3-methyl-benzothiophene-2-sulphonamide] | −1 | 1 | 86 |  |  | −1 | −8 | 109 |  |  |  |  |  |  |  |
| Cc1c(S(=O)(=O)N[C@H]2CCN(CCCc3noc4cc(F)ccc34)C2)sc2ccc(Cl)cc12 [Compound 205, 5-Chloro-N-[(3S)-1-[3-(6-fluoro-1,2-benzoxazol-3-yl)propyl]pyrrolidin-3-yl]-3-methyl-benzothiophene-2-sulphonamide] | 1 | 3 | 61 | −1 |  | −3 | 7 | 95 |  |  |  |  |  |  |  |
| N-[1-[3-(6-Fluoro-1,2-benzoxazol-3-yl)propyl]pyrrolidin-3-yl]-1-methyl-imidazole-4-sulphonamide [Compound 217] | −6 | 10 | 79 | 5 |  | −2 |  |  |  |  |  |  |  | 85 | 74 |
| O=S(=O)(NCC1CCN(CCCc2noc3cc(F)ccc23)C1)c1cccc2ccccc12 (stereo not shown) [Compound 239, N-[[1-[3-(6-Fluoro-1,2-benzoxazol-3-yl)propyl]pyrrolidin-3-yl]methyl]naphthalene-1-sulphonamide] | 2 | 2 | 56 | 1 | −2 |  |  |  |  |  |  |  |  |  |  |
